In ChEMBL document CHEMBL1201862, “PubChem BioAssay data set” (2004):
Active and inactive are the calls of the source.

How the values were obtained:
[1] = target: T1, Fructose-bisphosphate aldolase (Mycobacterium tuberculosis, UniProt P9WQA3); assay: Fluorescence-based biochemical high throughput dose response assay for inhibitors of the fructose-bisphosphate aldolase (FBA) of M. tuberculosis.; type: functional
T1 sequence (P9WQA3 whole entry): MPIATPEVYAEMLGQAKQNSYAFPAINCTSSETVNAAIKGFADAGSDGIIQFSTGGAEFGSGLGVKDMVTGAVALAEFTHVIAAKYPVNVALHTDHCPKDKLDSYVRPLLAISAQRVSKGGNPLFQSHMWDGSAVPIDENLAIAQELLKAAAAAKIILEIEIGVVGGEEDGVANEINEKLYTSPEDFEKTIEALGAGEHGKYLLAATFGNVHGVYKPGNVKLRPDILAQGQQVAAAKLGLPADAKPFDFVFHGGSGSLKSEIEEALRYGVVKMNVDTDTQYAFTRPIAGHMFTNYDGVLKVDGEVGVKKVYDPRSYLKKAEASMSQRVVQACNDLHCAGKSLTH

[2] = target: T2, Oxysterols receptor LXR-beta (Homo sapiens, UniProt P55055); type: functional, cell-based;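 note: agonist activity at LXR measured by a cell-based luminescence readout across a dose range, run as a counterscreen for daf-12 agonists; HEK293 cells with Gal4-LXR fusion and GAL4-driven luciferase reporter; potency for activation of Gal4-LXR reporter so compounds are agonists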
T2 sequence (P55055 whole entry): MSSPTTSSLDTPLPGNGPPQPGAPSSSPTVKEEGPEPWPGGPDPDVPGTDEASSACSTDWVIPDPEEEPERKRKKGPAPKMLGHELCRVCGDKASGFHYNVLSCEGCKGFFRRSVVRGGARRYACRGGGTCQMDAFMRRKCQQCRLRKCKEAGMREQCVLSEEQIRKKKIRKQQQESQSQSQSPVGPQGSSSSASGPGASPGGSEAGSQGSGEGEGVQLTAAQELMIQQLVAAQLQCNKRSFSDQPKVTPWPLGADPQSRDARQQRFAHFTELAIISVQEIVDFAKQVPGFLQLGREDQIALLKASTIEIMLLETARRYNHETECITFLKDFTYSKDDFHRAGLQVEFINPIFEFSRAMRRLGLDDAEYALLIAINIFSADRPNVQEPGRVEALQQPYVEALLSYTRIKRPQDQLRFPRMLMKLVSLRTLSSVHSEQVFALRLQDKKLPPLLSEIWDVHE

[3] = activation of miR-122 Renilla sensor silencing – cell-based, Huh7 psiCHECK-miR122, Renilla luciferase, cherry-picked, dose response (AID 651956); type: functional;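 note: huh7 hepatoma cells stably carrying a psiCHECK-2 miR-122 sensor plasmid; renilla luciferase signal reporting endogenous miR-122 activity after 48 h compound exposure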
cells [4] = type: functional, cell-based
cells [5] = type: functional, cell-based; remark: listed apart in the source
[6] = Counterscreen for inhibitors of Trypanosoma brucei methionyl tRNA synthetase (MetRS): Luminescence-based cell-based high throughput dose response assay to identify compounds that are cytotoxic to Jurkat human T lymphocyte cells.; type: functional
[7] = target: T3, Methionyl-tRNA synthetase, putative (Trypanosoma brucei brucei, UniProt Q38C91); type: functional, Trypanosoma brucei brucei strain 927/4 GUTat10.1
T3 sequence (Q38C91 whole entry): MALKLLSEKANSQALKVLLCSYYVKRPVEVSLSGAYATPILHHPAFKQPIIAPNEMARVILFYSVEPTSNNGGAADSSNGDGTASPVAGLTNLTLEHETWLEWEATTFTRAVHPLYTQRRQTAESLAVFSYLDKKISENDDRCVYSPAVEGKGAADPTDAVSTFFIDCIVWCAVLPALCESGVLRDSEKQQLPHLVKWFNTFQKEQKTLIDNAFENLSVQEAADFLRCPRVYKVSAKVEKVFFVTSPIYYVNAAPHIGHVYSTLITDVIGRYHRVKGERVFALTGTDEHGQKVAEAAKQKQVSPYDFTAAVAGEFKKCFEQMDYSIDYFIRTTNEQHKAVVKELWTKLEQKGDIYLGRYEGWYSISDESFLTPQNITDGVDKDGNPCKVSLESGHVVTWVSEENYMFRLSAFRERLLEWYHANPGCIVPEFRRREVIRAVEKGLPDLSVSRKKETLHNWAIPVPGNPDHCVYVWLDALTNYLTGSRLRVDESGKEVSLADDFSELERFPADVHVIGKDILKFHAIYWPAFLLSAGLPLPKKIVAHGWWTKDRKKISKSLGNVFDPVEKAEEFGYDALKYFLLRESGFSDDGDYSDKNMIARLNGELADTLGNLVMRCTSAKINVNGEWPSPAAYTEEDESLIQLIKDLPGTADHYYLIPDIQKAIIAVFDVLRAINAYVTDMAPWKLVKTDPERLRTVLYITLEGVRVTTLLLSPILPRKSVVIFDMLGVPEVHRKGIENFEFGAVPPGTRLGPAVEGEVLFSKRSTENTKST

[8] = target: T3, Methionyl-tRNA synthetase, putative; type: functional, Trypanosoma brucei brucei strain 927/4 GUTat10.1; remark: listed apart in the source
Protein skinhead-1 = target: T4, Protein skinhead-1 (Caenorhabditis elegans, UniProt P34707); type: functional
T4 sequence (P34707 whole entry): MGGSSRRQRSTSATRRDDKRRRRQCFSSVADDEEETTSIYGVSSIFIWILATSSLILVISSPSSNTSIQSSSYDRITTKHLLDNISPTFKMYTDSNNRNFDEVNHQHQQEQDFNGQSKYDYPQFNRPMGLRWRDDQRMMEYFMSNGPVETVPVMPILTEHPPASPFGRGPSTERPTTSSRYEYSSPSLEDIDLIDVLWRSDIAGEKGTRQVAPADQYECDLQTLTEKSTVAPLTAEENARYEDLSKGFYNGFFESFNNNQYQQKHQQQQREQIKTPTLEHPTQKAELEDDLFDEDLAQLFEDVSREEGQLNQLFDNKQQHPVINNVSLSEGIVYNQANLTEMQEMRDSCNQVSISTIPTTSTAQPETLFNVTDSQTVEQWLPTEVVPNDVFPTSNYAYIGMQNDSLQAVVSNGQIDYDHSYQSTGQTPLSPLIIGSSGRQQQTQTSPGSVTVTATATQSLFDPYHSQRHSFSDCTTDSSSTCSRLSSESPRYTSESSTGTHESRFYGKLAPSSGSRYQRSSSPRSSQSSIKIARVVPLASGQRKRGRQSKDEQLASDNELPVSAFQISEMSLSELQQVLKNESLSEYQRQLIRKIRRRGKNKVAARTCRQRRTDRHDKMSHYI

[9] = general mammalian cell viability loss – inhibitor set, cherry-pick, set 2, cytotoxicity control for miR-122 modulator project, dose response (AID 720697); type: functional, cell-based
[10] = Luminescence-based cell-based high throughput dose response assay to identify activators of the DAF-12 from the parasite S. stercoralis (ssDAF-12).; type: functional
[11] = blockers of bursicon-stimulated LGR2 cAMP reporter – cell-based, HEK293, CRE-luciferase reporter, cherry pick, set 2, dose response (AID 743343); type: functional;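 note: transfected cells were stimulated with diluted bursicon conditioned medium after compound addition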
[12] = blockade of melanocortin 4 receptor signaling – cell-based, plate reader, cherry pick, counter-screen for LGR2 antagonist project, dose response (AID 743444); type: functional;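 note: transfected HEK 293 cells stimulated with alpha-MSH peptide; potency of inhibitors of the alpha-MSH evoked signal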
[13] = A549 cell cytotoxicity, dose response, cytotoxicity control, plate reader, cherry-pick, antagonist series (AID 743412); type: functional, cell-based

COc1ccc2oc(=N)c(-c3nnc4n3CCCCC4)cc2c1
IC50 [1]: 4.68 µM (active)

Cc1ccc(SCCSc2ncccn2)cc1
EC50 [2]: > 67.5 µM (inactive)

Cc1cccc(NC(=O)Nc2ccc3c(c2)C(=O)N(C)[C@@H]2CC[C@@H](CC(=O)NCc4ccccc4Cl)O[C@H]2CO3)c1
AC50 [3]: 3.32 µM (active)

COc1ccccc1CCNCc1cc2c(cc1[N+](=O)[O-])OCO2
EC50 (cells [4]): > 29.9 µM (inactive) | IC50 (cells [5]): > 29.9 µM (inactive)

OC(c1cccc(Cl)c1)c1nc(-c2ccc3ccccc3c2)c[nH]1 (configuration not stated)
IC50 [6]: 83.3 µM (inactive) | IC50 [7]: 5.6 µM (active) | IC50 [8]: 14.2 µM (inactive)

Cc1cc(OCC(=O)NCC(O)c2ccccc2)c2c(C)cc(=O)oc2c1 (configuration not stated)
IC50 [1]: 1.26 µM (active)

COc1ccc2c(c1)cc(C(=O)N[C@@H](Cc1ccccc1)C(=O)N[C@@H](C)C(=O)O)n2C
IC50 [1]: 1.29 µM (active)

CN(C(=O)CSc1nc2cc(Cl)ccc2[nH]1)C1CCS(=O)(=O)C1 (configuration not stated)
IC50 [6]: 83.2 µM (inactive)

CN(C(=O)CSc1nc2ccc(Cl)cc2[nH]1)C1CCS(=O)(=O)C1 (configuration not stated)
IC50 [7]: 21.7 µM (inactive) | IC50 [8]: 64.5 µM (inactive)

COc1ccc(CNCCC(c2ccc(OC)cc2)c2ccccc2OC)cc1 (configuration not stated)
IC50 (Protein skinhead-1): > 100 µM (inactive) | AC50 [9]: 3.94 µM (active)

CC(=O)c1ccc2c3c(cccc13)C(=O)N(CCc1ccccc1)C2=O
IC50 [10]: > 67.5 µM (inactive) | EC50 (cells [4]): > 29.9 µM (inactive) | IC50 (cells [5]): > 29.9 µM (inactive)

COc1ccc(-c2cc(C(=O)Nc3cccc(O)c3)no2)cc1
AC50 [11]: 9.77 µM (active) | AC50 [12]: 7.86 µM (active) | AC50 [13]: > 52 µM (inactive)

Cc1noc(C)c1NC(=O)N(C)C[C@@H]1Oc2cc(C#CCC3CCCC3)ccc2S(=O)(=O)N([C@@H](C)CO)C[C@@H]1C
AC50 [3]: 18.9 µM (active)
